Measurements reported in publication PMC6857076 (Pharmacology Research & Perspectives, 2019).
Where two headings read alike, the source gives them in different places.

Experiments:
[1] = test system: IFNγ cytokine receptor (JAK1/JAK2); assay: Human whole blood, IFNγ-induced pSTAT1, CD14+ cells; type: cell-based; conditions: for IC50: Homo sapiens
Method: Blood was warmed to 37°C prior to use.
(§1) Then, 5 µL of PBS or cytokine was added to each well (5 µL/well; final, 10 U/mL EPO, 100 ng/mL G‐CSF, 10 ng/mL GM‐CSF, 5000 U/mL IFNα, 100 ng/mL IFNγ, 50 ng/mL IL‐2, 50 ng/mL IL‐3, 5 ng/mL IL‐4, 50 ng/mL IL‐6, 30 ng/mL IL‐7, 30 ng/mL IL‐10, 30 ng/mL IL‐12, 30 ng/mL IL‐13, 30 ng/mL IL‐15, 50 ng/mL IL‐21, 25 ng/mL IL‐23, 1000 ng/mL IL‐27) and incubated for 15 minutes. Anti‐cell surface antibodies were added 15 minutes prior to cytokine stimulation; anti‐CD14‐Pacific Blue (0.5 µL/well) to GM‐CSF, IFNγ, and TPO‐treated samples; anti‐CD3‐BV650 (0.5 µL/well) plus anti‐CD14‐Pacific Blue (0.5 µL/well) to IL‐6‐treated samples; and anti‐CD19‐BV421 (0.5 µL/well) plus anti‐CD14‐AF488 (0.5 µL/well) to IL‐13‐treated samples.
(§2) One more wash was done with staining buffer and all samples were finally suspended in 150 µL/well of the desired anti‐pSTAT antibodies at 1:150 dilution in staining buffer; anti‐pSTAT1‐AF647 in IFNγ‐treated samples; anti‐pSTAT1‐AF488 and anti‐pSTAT3‐AF647 in IFNα‐, IL‐6‐, and IL‐27‐treated samples; anti‐pSTAT3‐AF647 in G‐CSF‐, IL‐10‐, IL‐21‐, and IL‐23‐treated samples; anti‐pSTAT4‐AF647 in IL‐12‐treated samples; anti‐pSTAT5‐AF647 in EPO‐, GM‐CSF‐, IL‐2‐, IL‐3‐, IL‐7‐, IL‐15‐, and TPO‐treated samples; anti‐pSTAT5‐AF488 and anti‐pSTAT6‐AF647 in IL‐4‐treated samples; and anti‐pSTAT6‐AF647 in IL‐13‐treated samples.
(§3) The lymphocyte population was gated for pSTAT histogram analysis for IFNα‐, IL‐2‐, IL‐3‐, IL‐4‐, IL‐7‐, IL‐10‐, IL‐12‐, IL‐15‐, IL‐21‐, IL‐23‐, and IL‐27‐treated samples; granulocyte population for G‐CSF‐treated samples; CD14^+ cells for GM‐CSF‐, IFNγ‐, and TPO‐treated samples; CD3^+ cells and CD14^+ cells for IL‐6‐treated samples; CD14^+ cells and CD19^+ cells for IL‐13‐treated samples; all events (entire populations) for EPO‐treated cells. Background fluorescence was defined using unstimulated cells and a gate was placed at the foot of the peak to include ~0.5% gated population.
(§4) Histogram statistical analysis was performed using FACSDiva version 8.0.1 (BD Biosciences). Relative fluorescence unit (RFU), which measures the level of pSTAT, was calculated by multiplying the percent positive population and its mean fluorescence. Data from 11 compound concentrations (singlicate at each concentration) were normalized as a percentage of control, as shown in Equation 1:(1) %ofcontrol=100×A−B/C−B
(§5) A, RFU from wells containing compound and cytokine; B, RFU from wells without cytokine (minimum fluorescence); C, RFU from wells containing only cytokine (maximum fluorescence).
(§6) Inhibition curves and IC50 values were determined using Prism software (Version 7, GraphPad).

[2] = test system: IL-6 cytokine receptor (JAK1/JAK2, JAK1/TYK2); assay: Human whole blood, IL-6-induced pSTAT1, CD14+ cells; type: cell-based
Method: Blood was warmed to 37°C prior to use.
(§7) Anti‐cell surface antibodies were added 15 minutes prior to cytokine stimulation; anti‐CD14‐Pacific Blue (0.5 µL/well) to GM‐CSF, IFNγ, and TPO‐treated samples; anti‐CD3‐BV650 (0.5 µL/well) plus anti‐CD14‐Pacific Blue (0.5 µL/well) to IL‐6‐treated samples; and anti‐CD19‐BV421 (0.5 µL/well) plus anti‐CD14‐AF488 (0.5 µL/well) to IL‐13‐treated samples.
as §3, §4, §5, §6

[3] = test system: IL-10 cytokine receptor (JAK1/TYK2); assay: Human whole blood, IL-10-induced pSTAT3, lymphocytes; type: cell-based; conditions: Lymphocyte
Method: Blood was warmed to 37°C prior to use.
as §1, §2, §3, §4, §5, §6

[4] = test system: IL-6 cytokine receptor (JAK1/JAK2, JAK1/TYK2); assay: Human whole blood, IL-6-induced pSTAT1, CD3+ cells; type: cell-based; conditions: for IC50: Homo sapiens
Method: Blood was warmed to 37°C prior to use.
as §1, §2, §3, §4, §5, §6

[5] = unbound, Cav × fu; upadacitinib 15 mg QD
[6] = test system: IL-27 cytokine receptor (JAK1/JAK2, JAK1/TYK2); assay: Human whole blood, IL-27-induced pSTAT1, lymphocytes; type: cell-based; conditions: Lymphocyte
Method: Blood was warmed to 37°C prior to use.
as §7, §3, §4, §5, §6

[7] = test system: IL-27 cytokine receptor (JAK1/JAK2, JAK1/TYK2); assay: Human whole blood, IL-27-induced pSTAT3, lymphocytes; type: cell-based; conditions: Lymphocyte
Method: Blood was warmed to 37°C prior to use.
as §1, §2, §3, §4, §5, §6

[8] = test system: IL-6 cytokine receptor (JAK1/JAK2, JAK1/TYK2); assay: Human whole blood, IL-6-induced pSTAT3, CD3+ cells; type: cell-based
Method: Blood was warmed to 37°C prior to use.
as §7, §3, §4, §5, §6

[9] = test system: IL-21 cytokine receptor (JAK1/JAK3); assay: Human whole blood, IL-21-induced pSTAT3, lymphocytes; type: cell-based; conditions: Lymphocyte
Method: Blood was warmed to 37°C prior to use.
as §1, §2, §3, §4, §5, §6

CRP = conditions: RA; upadacitinib 6 mg BID; cited from earlier work
[10] = test system: G-CSF cytokine receptor (JAK1/JAK2); assay: Human whole blood, G-CSF-induced pSTAT3, granulocytes; type: cell-based
Method: Blood was warmed to 37°C prior to use.
(§8) Then, 5 µL of PBS or cytokine was added to each well (5 µL/well; final, 10 U/mL EPO, 100 ng/mL G‐CSF, 10 ng/mL GM‐CSF, 5000 U/mL IFNα, 100 ng/mL IFNγ, 50 ng/mL IL‐2, 50 ng/mL IL‐3, 5 ng/mL IL‐4, 50 ng/mL IL‐6, 30 ng/mL IL‐7, 30 ng/mL IL‐10, 30 ng/mL IL‐12, 30 ng/mL IL‐13, 30 ng/mL IL‐15, 50 ng/mL IL‐21, 25 ng/mL IL‐23, 1000 ng/mL IL‐27) and incubated for 15 minutes. […]
as §3
(§9) Histogram statistical analysis was performed using FACSDiva version 8.0.1 (BD Biosciences). Relative fluorescence unit (RFU), which measures the level of pSTAT, was calculated by multiplying the percent positive population and its mean fluorescence. […]
as §6

[11] = test system: IL-4 cytokine receptor (JAK1/JAK3); assay: Human whole blood, IL-4-induced pSTAT6, lymphocytes; type: cell-based; conditions: Lymphocyte
Method: Blood was warmed to 37°C prior to use.
as §1, §2, §3, §4, §5, §6

[12] = phase 3 RA studies; cited from earlier work
[13] = test system: IL-4 cytokine receptor (JAK1/JAK3); assay: Human whole blood, IL-4-induced pSTAT5, lymphocytes; type: cell-based; conditions: Lymphocyte
Method: Blood was warmed to 37°C prior to use.
as §8, §3, §9, §6

[14] = test system: IL-13 cytokine receptor (JAK1/JAK2, JAK1/TYK2); assay: Human whole blood, IL-13-induced pSTAT6, CD14+ cells; type: cell-based
Method: Blood was warmed to 37°C prior to use.
as §7, §3, §4, §5, §6

[15] = test system: IL-23 cytokine receptor (JAK2/TYK2); assay: Human whole blood, IL-23-induced pSTAT3, lymphocytes; type: cell-based; conditions: Lymphocyte
Method: Blood was warmed to 37°C prior to use.
as §8, §3, §9, §6

[16] = test system: IL-13 cytokine receptor (JAK1/JAK2, JAK1/TYK2); assay: Human whole blood, IL-13-induced pSTAT6, CD19+ cells; type: cell-based
Method: Blood was warmed to 37°C prior to use.
as §7, §3, §4, §5, §6

[17] = test system: TPO cytokine receptor (JAK2/JAK2); assay: Human whole blood, TPO-induced pSTAT5, CD14+ cells; type: cell-based; conditions: Homo sapiens
Method: Blood was warmed to 37°C prior to use.
as §1, §2, §3, §4, §5, §6

[18] = test system: IFNα cytokine receptor (JAK1/TYK2); assay: Human whole blood, IFNα-induced pSTAT1, lymphocytes; type: cell-based; conditions: for IC50: Homo sapiens, Lymphocyte
Method: Blood was warmed to 37°C prior to use.
as §1, §2, §3, §4, §5, §6

NK cell counts = conditions: RA; upadacitinib 6 mg BID; week 12; cited from earlier work
[19] = test system: IL-7 cytokine receptor (JAK1/JAK3); assay: Human whole blood, IL-7-induced pSTAT5, lymphocytes; type: cell-based; conditions: Lymphocyte
Method: Blood was warmed to 37°C prior to use.
as §1, §2, §3, §4, §5, §6

in vitro = conditions: both, human, pooled human plasma
[20] = test system: IL-15 cytokine receptor (JAK1/JAK3); assay: Human whole blood, IL-15-induced pSTAT5, lymphocytes; type: cell-based; conditions: for IC50: Homo sapiens, Lymphocyte
Method: Blood was warmed to 37°C prior to use.
as §1, §2, §3, §4, §5, §6

[21] = test system: IL-3 cytokine receptor (JAK2/JAK2); assay: Human whole blood, IL-3-induced pSTAT5, lymphocytes; type: cell-based; conditions: Homo sapiens, Lymphocyte
Method: Blood was warmed to 37°C prior to use.
as §1, §2, §3, §4, §5, §6

[22] = test system: EPO cytokine receptor (JAK2/JAK2); assay: Human whole blood spiked with CD34+-derived erythroid progenitor cells, EPO-induced pSTAT5; type: cell-based; conditions: for IC50: Homo sapiens, Erythroid progenitor cell
Method: CD34^+ cells were then harvested, washed once with Dulbecco's (D)‐PBS, and suspended at 0.5 x 10^6 cells/mL in human whole blood to be used in the EPO stimulation assay.
Blood was warmed to 37°C prior to use.
Background fluorescence was defined using unstimulated cells and a gate was placed at the foot of the peak to include ~0.5% gated population.
as §4, §5, §6

[23] = test system: IL-12 cytokine receptor (JAK2/TYK2); assay: Human whole blood, IL-12-induced pSTAT4, lymphocytes; type: cell-based; conditions: for IC50: Homo sapiens, Lymphocyte
Method: Blood was warmed to 37°C prior to use.
as §1, §2, §3, §4, §5, §6

[24] = test system: IL-2 cytokine receptor (JAK1/JAK3); assay: Human whole blood, IL-2-induced pSTAT5, lymphocytes; type: cell-based; conditions: Lymphocyte
Method: Blood was warmed to 37°C prior to use.
as §1, §2, §3, §4, §5, §6

[25] = test system: IFNα cytokine receptor (JAK1/TYK2); assay: Human whole blood, IFNα-induced pSTAT3, lymphocytes; type: cell-based; conditions: Lymphocyte
Method: Blood was warmed to 37°C prior to use.
as §1, §2, §3, §4, §5, §6

[26] = human; upadacitinib 15 mg QD; cited from earlier work
[27] = test system: GM-CSF cytokine receptor (JAK2/JAK2); assay: Human whole blood, GM-CSF-induced pSTAT5, CD14+ cells; type: cell-based; conditions: Homo sapiens
Method: Blood was warmed to 37°C prior to use.
as §1, §2, §3, §4, §5, §6

With `CC[C@@H]1CN(C(=O)NCC(F)(F)F)C[C@@H]1c1cnc2cnc3[nH]ccc3n12` [Upadacitinib] the “LogIC50, IFNγ induced pSTAT1, single experiment” value [1] was -7.002 log[M], the IC50 ([1]; read-out: IC50, IFNγ induced pSTAT1, single experiment) was 99.6 nM and the IC50 ([1]; read-out: IC50, IFNγ, pSTAT1) was 109 nM. For the same compound, the IC50 ([1]; read-out: IC50,u, IFNγ, pSTAT1) was 53 nM, the IC50 ([2]; read-out: IC50, IL-6, pSTAT1, CD14+ cells) was 26 nM and the IC50 ([2]; read-out: IC50,u, IL-6, pSTAT1, CD14+ cells) was 13 nM. The IC50 ([3]; read-out: IC50, IL-10, pSTAT3) was 90 nM, the IC50 ([3]; read-out: IC50,u, IL-10, pSTAT3) was 43 nM and the “LogIC50, IL-6 induced pSTAT1 (CD3+ cells), single experiment” value [4] was -7.893 log[M]. For the same compound, the IC50 ([4]; read-out: IC50, IL-6, pSTAT1, CD3+ cells) was 12 nM, the IC50 ([4]; read-out: IC50, IL-6 induced pSTAT1 (CD3+ cells), single experiment) was 12.8 nM and the IC50 ([4]; read-out: IC50,u, IL-6, pSTAT1, CD3+ cells) was 5.9 nM. For the same compound, the “Cav,u” value [5] was 27.4 nM, the IC50 ([6]; read-out: IC50, IL-27, pSTAT1) was 52 nM and the IC50 ([6]; read-out: IC50,u, IL-27, pSTAT1) was 25 nM. The IC50 ([7]; read-out: IC50, IL-27, pSTAT3) was 44 nM, the IC50 ([7]; read-out: IC50,u, IL-27, pSTAT3) was 21 nM and the IC50 ([8]; read-out: IC50, IL-6, pSTAT3, CD3+ cells) was 152 nM. For the same compound, the IC50 ([8]; read-out: IC50,u, IL-6, pSTAT3, CD3+ cells) was 73 nM, the IC50 ([9]; read-out: IC50, IL-21, pSTAT3) was 51 nM and the IC50 ([9]; read-out: IC50,u, IL-21, pSTAT3) was 25 nM. For the same compound, the “reduction of CRP levels from baseline to week 12” value (CRP) was -8.8 mg/L, the IC50 ([10]; read-out: IC50, G-CSF, pSTAT3) was 78 nM and the IC50 ([10]; read-out: IC50,u, G-CSF, pSTAT3) was 38 nM. The IC50 ([11]; read-out: IC50, IL-4, pSTAT6) was 77 nM, the IC50 ([11]; read-out: IC50,u, IL-4, pSTAT6) was 37 nM and the herpes zoster occurrence [12] was “reported”. For the same compound, the IC50 ([13]; read-out: IC50, IL-4, pSTAT5) was 8.2 nM, the IC50 ([13]; read-out: IC50,u, IL-4, pSTAT5) was 4 nM and the IC50 ([14]; read-out: IC50, IL-13, pSTAT6, CD14+ cells) was 126 nM. The IC50 ([14]; read-out: IC50,u, IL-13, pSTAT6, CD14+ cells) was 61 nM, the IC50 ([15]; read-out: IC50, IL-23, pSTAT3) was 242 nM and the IC50 ([15]; read-out: IC50,u, IL-23, pSTAT3) was 117 nM. The IC50 ([16]; read-out: IC50, IL-13, pSTAT6, CD19+ cells) was 72 nM, the IC50 ([16]; read-out: IC50,u, IL-13, pSTAT6, CD19+ cells) was 35 nM and the IC50 ([17]; read-out: IC50, TPO, pSTAT5) was 297 nM. For the same compound, the IC50 ([17]; read-out: IC50,u, TPO, pSTAT5) was 143 nM, the “LogIC50, IFNα induced pSTAT1, single experiment” value ([18]; Figure S1B, Donor 256, Exp 1) was -7.685 log[M] and the IC50 ([18]; read-out: IC50, IFNα induced pSTAT1, single experiment) was 20.7 nM. The IC50 ([18]; read-out: IC50, IFNα, pSTAT1) was 21 nM, the IC50 ([18]; read-out: IC50,u, IFNα, pSTAT1) was 10 nM and the “change from baseline in NK cell counts” value (NK cell counts) was “approximately −50 cells/mm^3”. It also gave an IC50 ([19]; read-out: IC50, IL-7, pSTAT5) of 101 nM, an IC50 ([19]; read-out: IC50,u, IL-7, pSTAT5) of 49 nM and a fraction unbound at 6 h, 1 μmol/L (in vitro) of 0.56. The “LogIC50, IL-15 induced pSTAT5, single experiment” value [20] was -7.157 log[M], the IC50 ([20]; read-out: IC50, IL-15, pSTAT5) was 64 nM and the IC50 ([20]; read-out: IC50, IL-15 induced pSTAT5, single experiment) was 69.7 nM. The IC50 ([20]; read-out: IC50,u, IL-15, pSTAT5) was 31 nM, the IC50 ([21]; read-out: IC50, IL-3, pSTAT5) was 326 nM and the IC50 ([21]; read-out: IC50,u, IL-3, pSTAT5) was 158 nM. The “LogIC50, EPO induced pSTAT5, single experiment” value [22] was -6.909 log[M], the IC50 ([22]; read-out: IC50, EPO induced pSTAT5, single experiment) was 123 nM and the IC50 ([22]; read-out: IC50, EPO, pSTAT5) was 174 nM. The IC50 ([22]; read-out: IC50,u, EPO, pSTAT5) was 84 nM, the “LogIC50, IL-12 induced pSTAT4, single experiment” value [23] was -6.953 log[M] and the IC50 ([23]; read-out: IC50, IL-12, pSTAT4) was 145 nM. It also gave an IC50 ([23]; read-out: IC50, IL-12 induced pSTAT4, single experiment) of 112 nM, an IC50 ([23]; read-out: IC50,u, IL-12, pSTAT4) of 70 nM and an IC50 ([24]; read-out: IC50, IL-2, pSTAT5) of 50 nM. It also gave an IC50 ([24]; read-out: IC50,u, IL-2, pSTAT5) of 24 nM, an IC50 ([25]; read-out: IC50, IFNα, pSTAT3) of 19 nM and an IC50 ([25]; read-out: IC50,u, IFNα, pSTAT3) of 9.2 nM. For the same compound, the Cav [26] was 49 nM, the IC50 ([27]; read-out: IC50, GM-CSF, pSTAT5) was 782 nM and the IC50 ([27]; read-out: IC50,u, GM-CSF, pSTAT5) was 377 nM.
